Assays:
[1] = DRUGMATRIX: Sodium/nucleoside co-transporter radioligand binding (ligand: nitrobenzylthioinosine); type: cell membranes, Cavia porcellus, Dunkin-Hartley, Cerebral cortex, Membrane; details: Not Active = under 50% inhibition at 10 µM
[2] = DRUGMATRIX: ATPase, Na+/K+ enzyme inhibition (substrate: ATP); type: tissue-based, Sus scrofa, Heart; details: Not Active = under 50% inhibition at 10 µM
[3] = DRUGMATRIX: Glutamate, NMDA, Phencyclidine radioligand binding (ligand: [3H] TCP); type: cell membranes, Rattus norvegicus, Wistar, Cerebral cortex, Membrane; details: Not Active = under 50% inhibition at 10 µM
[4] = DRUGMATRIX: Leukotriene, BLT (LTB4) radioligand binding (ligand: [3H]LTB4); type: cell membranes, Membrane; details: u-937; Not Active = under 50% inhibition at 10 µM
[5] = molecular target: T1, Neuropeptide Y receptor type 2 (Homo sapiens, UniProt P49146); type: cell membranes, Membrane; details: kan-ts; further: in other assays of this panel Not Active means under 50% inhibition at 10 µM
T1 sequence (P49146 whole entry): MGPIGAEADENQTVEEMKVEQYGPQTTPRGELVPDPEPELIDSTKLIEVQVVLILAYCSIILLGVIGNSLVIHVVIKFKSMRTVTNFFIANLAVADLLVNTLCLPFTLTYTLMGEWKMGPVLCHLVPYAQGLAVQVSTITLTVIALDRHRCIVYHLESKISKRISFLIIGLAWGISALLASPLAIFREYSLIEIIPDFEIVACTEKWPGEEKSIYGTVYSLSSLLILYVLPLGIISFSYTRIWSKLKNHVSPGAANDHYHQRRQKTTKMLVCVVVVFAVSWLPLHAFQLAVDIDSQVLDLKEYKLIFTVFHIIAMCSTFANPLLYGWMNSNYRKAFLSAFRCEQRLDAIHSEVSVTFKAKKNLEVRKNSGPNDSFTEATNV

Cathepsin G = molecular target: T2, Cathepsin G (Homo sapiens, UniProt P08311); type: tissue-based; details: neutrophil;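 further: inhibition of Cathepsin G enzyme activity, tested on an AMC-conjugated peptide substrate; in other assays of this panel Not Active means under 50% inhibition at 10 µM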
T2 sequence (P08311 whole entry): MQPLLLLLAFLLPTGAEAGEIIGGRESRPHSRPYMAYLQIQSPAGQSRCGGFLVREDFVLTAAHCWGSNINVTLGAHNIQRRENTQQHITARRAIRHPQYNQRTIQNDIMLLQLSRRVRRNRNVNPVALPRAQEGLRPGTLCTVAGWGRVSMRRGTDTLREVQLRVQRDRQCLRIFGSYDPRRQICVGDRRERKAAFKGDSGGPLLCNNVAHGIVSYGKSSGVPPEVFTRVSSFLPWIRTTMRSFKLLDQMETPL

Interstitial collagenase = molecular target: T3, Interstitial collagenase (Homo sapiens, UniProt P03956); experiment: biochemical; type: tissue-based, Rheumatoid synovial fibroblasts;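 further: MMP-1 enzyme inhibition assay using a peptide substrate; in other assays of this panel Not Active means under 50% inhibition at 10 µM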
T3 sequence (P03956 whole entry): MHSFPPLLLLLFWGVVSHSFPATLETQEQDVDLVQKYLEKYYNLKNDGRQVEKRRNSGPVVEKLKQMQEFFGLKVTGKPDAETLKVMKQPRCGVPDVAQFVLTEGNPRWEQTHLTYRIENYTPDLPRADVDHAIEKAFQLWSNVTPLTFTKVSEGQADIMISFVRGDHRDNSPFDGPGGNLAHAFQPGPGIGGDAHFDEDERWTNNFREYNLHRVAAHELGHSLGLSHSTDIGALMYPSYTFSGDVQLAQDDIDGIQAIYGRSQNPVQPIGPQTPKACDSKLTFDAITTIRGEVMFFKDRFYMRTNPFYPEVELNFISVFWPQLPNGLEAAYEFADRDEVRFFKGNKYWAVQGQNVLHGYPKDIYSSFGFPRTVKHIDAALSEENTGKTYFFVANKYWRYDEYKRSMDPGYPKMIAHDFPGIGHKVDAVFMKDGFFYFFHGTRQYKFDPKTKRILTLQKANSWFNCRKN

CC(C)CN(C[C@@H](O)[C@H](Cc1ccccc1)NC(=O)O[C@H]1CCOC1)S(=O)(=O)c1ccc(N)cc1
Not Active: IC50 [1] | Ki [1] | IC50 [2] | Ki [2] | IC50 [3] | Ki [3] | IC50 [4] | Ki [4] | IC50 [5] | IC50 (Cathepsin G) | IC50 (Interstitial collagenase)

c1ccc(Nc2ccc(Nc3ccccc3)cc2)cc1
Not Active: IC50 [1] | Ki [1] | IC50 [2] | Ki [2] | IC50 [3] | Ki [3] | IC50 [4] | Ki [4] | IC50 [5] | IC50 (Cathepsin G) | IC50 (Interstitial collagenase)

COc1cc2c3cc1Oc1cc(ccc1O)C[C@@H]1c4c(cc(OC)c(O)c4Oc4ccc(cc4)C[C@@H]3N(C)CC2)CC[N+]1(C)C.[Cl-]
Not Active: IC50 [1] | Ki [1] | IC50 [2] | Ki [2] | IC50 [3] | Ki [3] | IC50 [4] | Ki [4] | IC50 [5] | IC50 (Cathepsin G) | IC50 (Interstitial collagenase)

NC(=O)N1c2ccccc2CCc2ccccc21
Not Active: IC50 [1] | Ki [1] | IC50 [2] | Ki [2] | IC50 [3] | Ki [3] | IC50 [4] | Ki [4] | IC50 [5] | IC50 (Cathepsin G) | IC50 (Interstitial collagenase)

O=C1CC[C@@H](N2C(=O)c3ccccc3C2=O)C(=O)N1
Not Active: IC50 [1] | Ki [1] | IC50 [2] | Ki [2] | IC50 [3] | Ki [3] | IC50 [4] | Ki [4] | IC50 [5] | IC50 (Cathepsin G) | IC50 (Interstitial collagenase)

Cc1onc(O)c1CC(N)C(=O)O (racemic) [(R,S)-AMPA]
Not Active: IC50 [1] | Ki [1] | IC50 [2] | Ki [2] | IC50 [3] | Ki [3] | IC50 [4] | Ki [4] | IC50 [5] | IC50 (Cathepsin G) | IC50 (Interstitial collagenase)

Cc1ccc2cc3c(ccc4ccccc43)c3c2c1CC3 [3-METHYLCHOLANTHRENE]
Not Active: IC50 [1] | Ki [1] | IC50 [2] | Ki [2] | IC50 [3] | Ki [3] | IC50 [4] | Ki [4] | IC50 [5] | IC50 (Cathepsin G) | IC50 (Interstitial collagenase)

CC[C@@]1(O)C[C@H](O[C@H]2C[C@H](N(C)C)[C@H](O[C@H]3C[C@H](O)[C@H](O[C@H]4CCC(=O)[C@H](C)O4)[C@H](C)O3)[C@H](C)O2)c2c(cc3c(c2O)C(=O)c2c(O)cccc2C3=O)[C@H]1C(=O)OC [ACLARUBICIN]
Not Active: IC50 [1] | Ki [1] | IC50 [2] | Ki [2] | IC50 [3] | Ki [3] | IC50 [4] | Ki [4] | IC50 [5] | IC50 (Cathepsin G) | IC50 (Interstitial collagenase)

Nc1nc2c(ncn2COCCO)c(=O)[nH]1 [ACYCLOVIR]
Not Active: IC50 [1] | Ki [1] | IC50 [2] | Ki [2] | IC50 [3] | Ki [3] | IC50 [4] | Ki [4] | IC50 [5] | IC50 (Cathepsin G) | IC50 (Interstitial collagenase)

Cc1c(C)c2c(c(C)c1O)CC[C@@](C)(CCC[C@H](C)CCC[C@H](C)CCCC(C)C)O2 [ALPHA-TOCOPHEROL]
Not Active: IC50 [1] | Ki [1] | IC50 [2] | Ki [2] | IC50 [3] | Ki [3] | IC50 [4] | Ki [4] | IC50 [5] | IC50 (Cathepsin G) | IC50 (Interstitial collagenase)

CN(C)c1nc(N(C)C)nc(N(C)C)n1 [ALTRETAMINE]
Not Active: IC50 [1] | Ki [1] | IC50 [2] | Ki [2] | IC50 [3] | Ki [3] | IC50 [4] | Ki [4] | IC50 [5] | IC50 (Cathepsin G) | IC50 (Interstitial collagenase)

Nc1c(Br)cc(Br)cc1CN[C@H]1CC[C@H](O)CC1 [AMBROXOL]
Not Active: IC50 [1] | Ki [1] | IC50 [2] | Ki [2] | IC50 [3] | Ki [3] | IC50 [4] | Ki [4] | IC50 [5] | IC50 (Cathepsin G) | IC50 (Interstitial collagenase)

NCCCCCC(=O)O [AMINOCAPROIC ACID]
Not Active: IC50 [1] | Ki [1] | IC50 [2] | Ki [2] | IC50 [3] | Ki [3] | IC50 [4] | Ki [4] | IC50 [5] | IC50 (Cathepsin G) | IC50 (Interstitial collagenase)

CCC1(c2ccc(N)cc2)CCC(=O)NC1=O (stereo not drawn) [AMINOGLUTETHIMIDE]
Not Active: IC50 [1] | Ki [1] | IC50 [2] | Ki [2] | IC50 [3] | Ki [3] | IC50 [4] | Ki [4] | IC50 [5] | IC50 (Cathepsin G) | IC50 (Interstitial collagenase)

Cc1ccc(/N=C/N(C)/C=N/c2ccc(C)cc2C)c(C)c1 [AMITRAZ]
Not Active: IC50 [1] | Ki [1] | IC50 [2] | Ki [2] | IC50 [3] | Ki [3] | IC50 [4] | Ki [4] | IC50 [5] | IC50 (Cathepsin G) | IC50 (Interstitial collagenase)

CCOC(=O)C1=C(COCCN)NC(C)=C(C(=O)OC)C1c1ccccc1Cl (stereo not drawn) [AMLODIPINE]
Not Active: IC50 [1] | Ki [1] | IC50 [2] | Ki [2] | IC50 [3] | Ki [3] | IC50 [4] | Ki [4] | IC50 [5] | IC50 (Cathepsin G) | IC50 (Interstitial collagenase)

COc1ccc(C[C@H]2NC[C@H](O)[C@H]2OC(C)=O)cc1 [ANISOMYCIN]
Not Active: IC50 [1] | Ki [1] | IC50 [2] | Ki [2] | IC50 [3] | Ki [3] | IC50 [4] | Ki [4] | IC50 [5] | Ki [5] | IC50 (Cathepsin G) | Ki (Cathepsin G) | IC50 (Interstitial collagenase) | Ki (Interstitial collagenase)

Nc1ncn([C@@H]2O[C@H](CO)[C@@H](O)[C@H]2O)c(=O)n1 [AZACITIDINE]
Not Active: IC50 [1] | Ki [1] | IC50 [2] | Ki [2] | IC50 [3] | Ki [3] | IC50 [4] | Ki [4] | IC50 [5] | IC50 (Cathepsin G) | IC50 (Interstitial collagenase)

CN(C)C(=O)Oc1cc(OC(=O)N(C)C)cc(C(O)CNC(C)(C)C)c1 (stereo not drawn) [BAMBUTEROL]
Not Active: IC50 [1] | Ki [1] | IC50 [2] | Ki [2] | IC50 [3] | Ki [3] | IC50 [4] | Ki [4] | IC50 [5] | IC50 (Cathepsin G) | IC50 (Interstitial collagenase)

c1ccc2c(c1)c1cccc3ccc4cccc2c4c31 [BENZO[E]PYRENE]
Not Active: IC50 [1] | Ki [1] | IC50 [2] | Ki [2] | IC50 [3] | Ki [3] | IC50 [4] | Ki [4] | IC50 [5] | IC50 (Cathepsin G) | IC50 (Interstitial collagenase)

— ChEMBL document CHEMBL1909046, “DrugMatrix in vitro pharmacology data”
